In the supplement of paper PMC11414989:

Assays:
Settings in all cases: exposure window: 6 hpf to 120 hpf, static, assay age: 120 hpf (5 dpf)
[1] = tested on: Danio rerio larvae (Tropical 5D); assay: mean distance moved of exposed larvae, dark phase (µm per frame (1/25 s)); higher = more movement
Method in brief: (§1)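 Each value gives the mean movement per phase of the second light/dark cycle, and control means from the same plate are listed alongside. Tropical 5D wild-type zebrafish embryos were placed singly in the wells of 96-well plates, at least 7 per concentration, and exposed statically to nominal chemical concentrations such as 0.01 and 74.8 uM from 6 to 120 hpf. Any larva with a morphological abnormality was excluded. At 120 hpf, movement was recorded in a Zebrabox over 6 min of dark followed by three cycles of 3 min light and 3 min dark, and tracked using Ethovision XT v.11.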

[2] = tested on: Danio rerio larvae (Tropical 5D); assay: mean angular velocity of exposed larvae, dark phase (angular velocity (unit not stated)); higher = more movement
Method in brief: as §1

[3] = tested on: Danio rerio larvae (Tropical 5D); assay: mean distance moved of exposed larvae, light phase (µm per frame (1/25 s)); higher = more movement
Method in brief: as §1

[4] = tested on: Danio rerio larvae (Tropical 5D); assay: mean angular velocity of exposed larvae, light phase (angular velocity (unit not stated)); higher = more movement
Method in brief: as §1

c1ccc2c(c1)c1cccc3c4ccccc4c4cccc2c4c13 [Dibenzo[e-l]pyrene]
Settings | mean angular velocity of exposed larvae, [2] | mean angular velocity of exposed larvae, [4] | mean distance moved of exposed larvae, [1] | mean distance moved of exposed larvae, [3]
0.01 µM | 0.665 | 0.217 | 23.6 | 7.75
0.025 µM | 0.598 | 0.129 | 22.4 | 6.96
0.065 µM | 0.644 | 0.194 | 24.7 | 6.48
0.164 µM | 0.681 | 0.187 | 22.8 | 8.06
0.35 µM | 0.693 | 0.147 | 25.3 | 7.37
0.75 µM | 0.704 | 0.138 | 26.3 | 6.8
1 µM | 0.415 | 0.119 | 13.5 | 4.47
2.54 µM | 0.428 | 0.113 | 10.8 | 2.56
6.45 µM | 0.349 | 0.0734 | 9.33 | 1.7
16.4 µM | 0.245 | 0.0678 | 8.16 | 1.99
35 µM | 0.503 | 0.0716 | 12 | 1.66
74.8 µM | 0.384 | 0.0555 | 9.85 | 1.63
100 µM | 0.353 | 0.0996 | 9.64 | 3.03

O=P(O)(O)C(F)(F)C(F)(F)C(F)(F)C(F)(F)C(F)(F)C(F)(F)C(F)(F)C(F)(F)C(F)(F)C(F)(F)F [Perfluorodecylphosphonic acid]
0.25 µM
Settings | mean angular velocity of exposed larvae | mean distance moved of exposed larvae
[1] | – | 9.21
[2] | 0.34 | –
[3] | – | 1.45
[4] | 0.0471 | –
